Assay results reported in patent publication US20110178104A1, “Anti-Heparin Compounds” (POLYMEDIX INC., priority 2010, published 2011).
Where two headings read alike, the source gives them in different places.

Tests used:
enoxaparin (ENOX) = assay: FXa chromogenic assay (absence of plasma), enoxaparin
fondaparinux (FONDAPX) = assay: FXa chromogenic assay (absence of plasma), fondaparinux
[1] = test system: unfractionated heparin (UFH); assay: aPTT clotting assay, UFH 0.2 U/mL in plasma (Example 7); type: biochemical
Description: aPTT clotting Assay. Unfractionated heparin was mixed with plasma at a final concentration of 0.2 U/mL. […] The ACL Elite Hemostasis analyzer (Beckman Coulter™) was used to add aPTT reagent (HemosIL SynthASil) to supplemented plasma. Clotting was initiated by addition of CaCl2 and time to clot was recorded.

[2] = enoxaparin 0.1 μg/mL, absence of plasma
[3] = fondaparinux 0.02 μg/mL, absence of plasma

| Structure (SMILES) | ENOX (FXa) EC50 (enoxaparin (ENOX); [2]) [µg/mL] | FONDAPX (FXa) EC50 (fondaparinux (FONDAPX); [3]) | UFH (aPTT) EC50 ([1]; UFH 0.2 U/mL in plasma) | ENOX (FXa) EC50 (enoxaparin (ENOX)) [µg/mL] | FONDAPX (FXa) EC50 (fondaparinux (FONDAPX)) [µg/mL] | UFH (aPTT) EC50 [1] [µg/mL] |
| --- | --- | --- | --- | --- | --- | --- |
| COc1cc(OC)c(C(=O)Nc2cc(C(F)(F)F)cc(NC(=O)CCCCNC(=N)N)c2SCCN)cc1C(=O)Nc1cc(C(F)(F)F)cc(NC(=O)CCCCNC(=N)N)c1SCCN [Compound 1] | 0.18 | inactive | inactive | – | – | – |
| COc1cc(OC)c(C(=O)N[C@H]2CC[C@H](NC(=O)c3cc(C(=O)NCCN(C)C)c(OCCCCCN)cc3OCCCCCN)CC2)cc1C(=O)NC1CCC(NC(=O)c2cc(C(=O)NCCN(C)C)c(OCCCCCN)cc2OCCCCCN)CC1 (some centres unmarked) [Compound 2] | 2.26 | inactive | 6.25 µg/mL | – | – | – |
| COc1cc(OC)c(C(=O)N[C@H]2CC[C@H](NC(=O)c3cc(C(=O)NCCN(C)C)c(OCCCCCNC(=N)N)cc3OCCCCCNC(=N)N)CC2)cc1C(=O)NC1CCC(NC(=O)c2cc(C(=O)NCCN(C)C)c(OCCCCCNC(=N)N)cc2OCCCCCNC(=N)N)CC1 (some centres unmarked) [Compound 3] | 0.25 | 1.34 µg/mL | 1.76 µg/mL | – | – | – |
| CN(C)CCNC(=O)c1cc(C(=O)NCCN(C)C)c(OCCCCCN)cc1OCCCCCN [Compound 4] | 47.94 | 84.66 µg/mL | inactive | – | – | – |
| CN(C)CCNC(=O)c1cc(C(=O)N[C@H]2CC[C@H](NC(=O)c3cc(C(=O)NCCN(C)C)c(OCCCCCN)cc3OCCCCCN)CC2)c(OCCCCCN)cc1OCCCCCN [Compound 5] | 23.71 | inactive | 19.76 µg/mL | – | – | – |
| N=C(N)NCCCCC(=O)Nc1cc(C(F)(F)F)cc(NC(=O)c2cc(C(=O)Nc3cc(C(F)(F)F)cc(NC(=O)CCCCNC(=N)N)c3SCCN)ncn2)c1SCCN [Compound 6] | 0.57 | inactive | 29.11 µg/mL | – | – | – |
| COc1ccc(NC(=O)[C@H](CCCNC(=N)N)NC(=O)c2cc(NC(=O)[C@H](CCCNC(=N)N)NC(=O)c3cc(NC(=O)[C@H](CCCNC(=N)N)NC(=O)c4cc(NC(=O)[C@@H](N)CCCNC(=N)N)ccc4OC)ccc3OC)ccc2OC)cc1C(N)=O [Compound 7] | 0.21 | 1.49 µg/mL | 1.84 µg/mL | – | – | – |
| N=C(N)NCCC[C@@H](N)C(=O)Nc1ccc(OCCNC(=N)N)c(C(=O)N[C@H](CCCNC(=N)N)C(=O)Nc2ccc(OCCNC(=N)N)c(C(=O)N[C@H](CCCNC(=N)N)C(=O)Nc3ccc(OCCNC(=N)N)c(C(N)=O)c3)c2)c1 [Compound 9] | 2.90 | 40.16 µg/mL | 5.35 µg/mL | – | – | – |
| COc1ccc(NC(=O)[C@@H](CCCNC(=N)N)NC(=O)c2cc(NC(=O)[C@@H](CCCNC(=N)N)NC(=O)c3cc(NC(=O)[C@@H](CCCNC(=N)N)NC(=O)c4cc(NC(=O)[C@H](N)CCCNC(=N)N)ccc4OC)ccc3OCCNC(=N)N)ccc2OCCNC(=N)N)cc1C(N)=O [Compound 11] | 1.66 | 7.04 µg/mL | 5.79 µg/mL | – | – | – |
| COc1ccc(NC(=O)[C@@H](CCCCN)NC(=O)c2cc(NC(=O)[C@@H](CCCCN)NC(=O)c3cc(NC(=O)[C@@H](CCCCN)NC(=O)c4cc(NC(=O)[C@H](N)CCCCN)ccc4OC)ccc3OC)ccc2OC)cc1C(N)=O [Compound 17] | 0.50 | 11.15 µg/mL | 2.33 µg/mL | – | – | – |
| COc1ccc(NC(=O)[C@@H](CCCNC(=N)N)NC(=O)c2cc(NC(=O)[C@@H](CCCNC(=N)N)NC(=O)c3cc(NC(=O)[C@@H](CCCNC(=N)N)NC(=O)c4cc(NC(=O)[C@H](N)CCCNC(=N)N)ccc4OCCNC(=N)N)ccc3OC)ccc2OC)cc1C(N)=O [Compound 19] | 0.27 | 3.35 µg/mL | 2.11 µg/mL | – | – | – |
| N=C(N)NCCC[C@@H](N)C(=O)Nc1ccc(Cl)c(C(=O)N[C@H](CCCNC(=N)N)C(=O)Nc2ccc(Cl)c(C(=O)N[C@H](CCCNC(=N)N)C(=O)Nc3ccc(Cl)c(C(=O)N[C@H](CCCNC(=N)N)C(=O)Nc4ccc(Cl)c(C(N)=O)c4)c3)c2)c1 [Compound 26] | 3.93 | 36.65 µg/mL | 4.26 µg/mL | – | – | – |
| COc1ccc(NC(=O)[C@@H](CCCNC(=N)N)NC(=O)CCCCNC(=N)N)cc1C(=O)N[C@H](CCCNC(=N)N)C(=O)Nc1ccc(OC)c(C(=O)N[C@H](CCCNC(=N)N)C(=O)Nc2ccc(OC)c(C(=O)N[C@H](CCCNC(=N)N)C(=O)Nc3ccc(OCCNC(=N)N)c(C(N)=O)c3)c2)c1 [Compound 27] | 0.10 | 2.51 µg/mL | 2.19 µg/mL | – | – | – |
| COc1ccc(NC(=O)[C@H](CCCCN)NC(=O)c2cc(NC(=O)[C@H](CCCCN)NC(=O)c3cc(NC(=O)[C@H](CCCCN)NC(=O)c4cc(NC(=O)[C@H](CCCCN)NC(C)=O)ccc4OC)ccc3OC)ccc2OC)cc1C(N)=O [Compound 28] | 0.23 | 3.21 µg/mL | 2.28 µg/mL | – | – | – |
| COc1ccc(NC(=O)[C@@H](CCCN)NC(=O)c2cc(NC(=O)[C@@H](CCCNC(=N)N)NC(=O)c3cc(NC(=O)[C@@H](CCCNC(=N)N)NC(=O)c4cc(NC(=O)[C@H](N)CCCN)ccc4OC)ccc3OC)ccc2OC)cc1C(N)=O [Compound 30] | – | – | – | 0.28 | 3.99 | 1.52 |
| COc1ccc(NC(=O)[C@@H](CCCNC(=N)N)NC(=O)c2cc(NC(=O)[C@@H](CCCNC(=N)N)NC(=O)c3cc(NC(=O)[C@@H](CCCNC(=N)N)NC(=O)c4cc(NC(=O)[C@@H](C)NC(=O)CCCCNC(=N)N)ccc4OC)ccc3OC)ccc2OC)cc1C(=O)NCCCCCN [Compound 61] | 0.11 | 2.99 µg/mL | – | – | – | – |
| COc1ccc(NC(=O)[C@@H](CCCNC(=N)N)NC(=O)c2cc(NC(=O)[C@@H](CCCNC(=N)N)NC(=O)c3cc(NC(=O)[C@@H](CCCNC(=N)N)NC(=O)c4cc(NC(=O)[C@@H](C)NC(=O)CCCCN)ccc4OC)ccc3OC)ccc2OC)cc1C(=O)NCCCCCN [Compound 62] | 0.10 | 3.99 µg/mL | – | – | – | – |
| COc1ccc(NC(=O)[C@@H](CCCNC(=N)N)NC(=O)c2cc(NC(=O)[C@@H](CCCNC(=N)N)NC(=O)c3cc(NC(=O)[C@@H](CCCNC(=N)N)NC(=O)c4cc(NC(=O)[C@@H](C)NC(=O)CCN)ccc4OC)ccc3OC)ccc2OC)cc1C(=O)NCCCCCN [Compound 63] | 0.10 | 3.29 µg/mL | – | – | – | – |
| N=C(N)NCCC[C@@H](N)C(=O)Nc1cccc(C(=O)N[C@H](CCCNC(=N)N)C(=O)Nc2cccc(C(=O)N[C@H](CCCNC(=N)N)C(=O)Nc3cccc(C(=O)N[C@H](CCCNC(=N)N)C(=O)Nc4cccc(C(N)=O)n4)n3)n2)n1 [Compound 65] | 16.29 | – | 4.48 µg/mL | – | – | – |
| COc1ccc(NC(=O)[C@@H](CCCNC(=N)N)NC(=O)c2cc(NC(=O)[C@@H](CCCNC(=N)N)NC(=O)c3cc(NC(=O)[C@@H](CCCNC(=N)N)NC(=O)c4cc(NC(=O)[C@@H](CCCNC(=N)N)NC(=O)CCCCCCCCC(=O)N[C@H](CCCNC(=N)N)C(=O)Nc5ccc(OC)c(C(=O)N[C@H](CCCNC(=N)N)C(=O)Nc6ccc(OC)c(C(=O)N[C@H](CCCNC(=N)N)C(=O)Nc7ccc(OC)c(C(=O)N[C@H](CCCNC(=N)N)C(=O)Nc8ccc(OC)c(C(N)=O)c8)c7)c6)c5)ccc4OC)ccc3OC)ccc2OC)cc1C(N)=O [Compound 66] | – | – | 2.53 µg/mL | – | – | – |
| COc1ccc(NC(=O)[C@@H](CCCNC(=N)N)NC(=O)c2cc(NC(=O)[C@@H](CCCNC(=N)N)NC(=O)c3cc(NC(=O)[C@@H](CCCNC(=N)N)NC(=O)c4cc(NC(=O)[C@H](N)CCCNC(N)=O)ccc4OC)ccc3OC)ccc2OC)cc1C(N)=O [Compound 82] | 0.07 | 0.77 µg/mL | – | – | – | – |
| COc1ccc(NC(=O)[C@@H](CCCNC(=N)N)NC(=O)c2cc(NC(=O)[C@@H](CCCNC(=N)N)NC(=O)c3cc(NC(=O)[C@@H](Cc4c[nH]c5ccccc45)NC(=O)c4cc(NC(=O)[C@H](N)CCCNC(=N)N)ccc4OC)ccc3OC)ccc2OC)cc1C(N)=O [Compound 85] | 0.36 | 1.93 µg/mL | – | – | – | – |
| COc1cc(OC)c(C(=O)N[C@H]2CC[C@H](NC(=O)c3cc(C(=O)NCCN(C)C)c(OCCCCCN)cc3OCCCCCN)CC2)cc1C(=O)NCCN(C)C [Compound 86] | – | >90 µg/mL | inactive | – | – | – |
| COc1ccc(NC(=O)[C@H](CCCCN)NC(=O)c2cc(NC(=O)[C@H](CCCCN)NC(=O)c3cc(OC(=O)[C@@H](N)CCCCN)ccc3OC)ccc2OC)cc1C(=O)N[C@@H](CCCCN)C(=O)Nc1ccc(OCC(=O)O)c(C(N)=O)c1 [Compound 116] | – | – | 3.10 µg/mL | – | – | – |
| COc1ccc(NC(=O)[C@H](CCCCN)NC(=O)c2cc(NC(=O)[C@H](CCCCN)NC(=O)c3cc(NC(=O)[C@H](CCCCN)NC(=O)c4cc(NC(=O)[C@@H](N)CCCCN)ccc4OC)ccc3OCC(=O)O)ccc2OC)cc1C(N)=O [Compound 118] | – | – | 3.14 µg/mL | – | – | – |
